Measurements taken from PubChem BioAssay AID1963850 (Molecular Pharmacology Branch, DTP, NCI, 2024).

Tested on: 192522-019-R-J2-PDC complex tumor spheroid viability
Experiment: Anticancer human tumor 192522-019-R-J2-PDC patient-derived colon adenocarcinoma cell line growth inhibition [POLQ]
Details: for IC50: curve of first compound; for viability, T/C: stronger effect = lower value
Method in brief: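 PDC + HUVEC + MSC complex spheroids; POLQ inhibitors ± partner drugs; top conc. at/near clinical Cmax, else 10 microM (SN-38 1 microM), half-log dilutions; 37 degrees C, 5% CO2.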

[1] = second compound 0.0316 µM, first compound 0.0316 µM
[2] = second compound 0.0316 µM, first compound 0.1 µM
[3] = second compound 0.0316 µM, first compound 0.316 µM
[4] = second compound 0.0316 µM, first compound 1 µM
[5] = second compound 0.1 µM, first compound 0.0316 µM
[6] = second compound 0.1 µM, first compound 0.1 µM
[7] = second compound 0.1 µM, first compound 0.316 µM
[8] = second compound 0.1 µM, first compound 1 µM
[9] = second compound 0.316 µM, first compound 0.0316 µM
[10] = second compound 0.316 µM, first compound 0.1 µM
[11] = second compound 0.316 µM, first compound 0.316 µM
[12] = second compound 0.316 µM, first compound 1 µM
[13] = second compound 1 µM, first compound 0.0316 µM
[14] = second compound 1 µM, first compound 0.1 µM
[15] = second compound 1 µM, first compound 0.316 µM
[16] = second compound 1 µM, first compound 1 µM
[17] = second compound 3.16 µM, first compound 0.0316 µM
[18] = second compound 3.16 µM, first compound 0.1 µM
[19] = second compound 3.16 µM, first compound 0.316 µM
[20] = second compound 3.16 µM, first compound 1 µM
[21] = second compound 10 µM, first compound 0.0316 µM
[22] = second compound 10 µM, first compound 0.1 µM
[23] = second compound 10 µM, first compound 0.316 µM
[24] = second compound 10 µM, first compound 1 µM
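Further: spheroids exposed to drugs for seven days before reading.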
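Wherever viability, T/C is given: 100% = DMSO vehicle control viability in luminescence.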

SMILES: C=CC(=O)N1CCN(c2nc(=O)n(-c3c(C)ccnc3C(C)C)c3nc(-c4c(O)cccc4F)c(F)cc23)C(C)C1 (centres undefined) + COC1C(OC(N)=O)C(O)C(Oc2ccc3c(O)c(NC(=O)c4ccc(O)c(CC=C(C)C)c4)c(=O)oc3c2C)OC1(C)C
- IC50 (second compound 0.0316 µM): > 10000 nM
- IC50 (second compound 0.1 µM): > 10000 nM
- IC50 (second compound 0.316 µM): > 10000 nM
- IC50 (second compound 1 µM): > 10000 nM
- IC50 (second compound 3.16 µM): > 10000 nM
- IC50 (second compound 10 µM): > 10000 nM
- viability, T/C [1]: 107%
- viability, T/C [2]: 96.2%
- viability, T/C [3]: 103%
- viability, T/C [4]: 98.7%
- viability, T/C (second compound 0.0316 µM, first compound 3.16 µM): 107%
- viability, T/C (second compound 0.0316 µM, first compound 10 µM): 97%
- viability, T/C [5]: 101%
- viability, T/C [6]: 91.1%
- viability, T/C [7]: 93.3%
- viability, T/C [8]: 96.5%
- viability, T/C (second compound 0.1 µM, first compound 3.16 µM): 101%
- viability, T/C (second compound 0.1 µM, first compound 10 µM): 105%
- viability, T/C [9]: 103%
- viability, T/C [10]: 101%
- viability, T/C [11]: 101%
- viability, T/C [12]: 99.7%
- viability, T/C (second compound 0.316 µM, first compound 3.16 µM): 105%
- viability, T/C (second compound 0.316 µM, first compound 10 µM): 114%
- viability, T/C [13]: 97.7%
- viability, T/C [14]: 105%
- viability, T/C [15]: 112%
- viability, T/C [16]: 110%
- viability, T/C (second compound 1 µM, first compound 3.16 µM): 109%
- viability, T/C (second compound 1 µM, first compound 10 µM): 121%
- viability, T/C [17]: 103%
- viability, T/C [18]: 105%
- viability, T/C [19]: 109%
- viability, T/C [20]: 106%
- viability, T/C (second compound 3.16 µM, first compound 3.16 µM): 117%
- viability, T/C (second compound 3.16 µM, first compound 10 µM): 102%
- viability, T/C [21]: 104%
- viability, T/C [22]: 92.5%
- viability, T/C [23]: 105%
- viability, T/C [24]: 96.8%
- viability, T/C (second compound 10 µM, first compound 3.16 µM): 118%
- viability, T/C (second compound 10 µM, first compound 10 µM): 107%

SMILES: CCc1c2c(nc3ccc(O)cc13)-c1cc3c(c(=O)n1C2)COC(=O)[C@]3(O)CC + Cc1cccc(N(C)C(=O)C2C(O)CCN2c2nc(C)cc(C(F)(F)F)c2C#N)c1
- IC50 (second compound 0.0316 µM): 131 nM
- IC50 (second compound 0.1 µM): 136 nM
- IC50 (second compound 0.316 µM): 158 nM
- IC50 (second compound 1 µM): 229 nM
- IC50 (second compound 3.16 µM): 234 nM
- IC50 (second compound 10 µM): 112 nM
- viability, T/C (second compound 0.0316 µM, first compound 0.00316 µM): 95.4%
- viability, T/C (second compound 0.0316 µM, first compound 0.01 µM): 63.6%
- viability, T/C [1]: 72.2%
- viability, T/C [2]: 53.6%
- viability, T/C [3]: 40.3%
- viability, T/C [4]: 31.1%
- viability, T/C (second compound 0.1 µM, first compound 0.00316 µM): 91.5%
- viability, T/C (second compound 0.1 µM, first compound 0.01 µM): 66.2%
- viability, T/C [5]: 75.8%
- viability, T/C [6]: 52.3%
- viability, T/C [7]: 36.7%
- viability, T/C [8]: 33.5%
- viability, T/C (second compound 0.316 µM, first compound 0.00316 µM): 104%
- viability, T/C (second compound 0.316 µM, first compound 0.01 µM): 72.8%
- viability, T/C [9]: 70.5%
- viability, T/C [10]: 60.7%
- viability, T/C [11]: 38.8%
- viability, T/C [12]: 33.9%
- viability, T/C (second compound 1 µM, first compound 0.00316 µM): 95.1%
- viability, T/C (second compound 1 µM, first compound 0.01 µM): 78.1%
- viability, T/C [13]: 71.9%
- viability, T/C [14]: 61%
- viability, T/C [15]: 44.5%
- viability, T/C [16]: 35%
- viability, T/C (second compound 3.16 µM, first compound 0.00316 µM): 101%
- viability, T/C (second compound 3.16 µM, first compound 0.01 µM): 82.6%
- viability, T/C [17]: 79.1%
- viability, T/C [18]: 57.3%
- viability, T/C [19]: 45.8%
- viability, T/C [20]: 36.4%
- viability, T/C (second compound 10 µM, first compound 0.00316 µM): 97.6%
- viability, T/C (second compound 10 µM, first compound 0.01 µM): 69.4%
- viability, T/C [21]: 68.8%
- viability, T/C [22]: 49.4%
- viability, T/C [23]: 42.6%
- viability, T/C [24]: 36.5%
